From patent US20030134779A1, “Method and composition for treatment and/or prevention of antibiotic-resistant microorganism infections” (priority 2002, published 2003) come the findings set out here.

In assay [1] the test system is S. aureus strains. Put plainly: Disk diffusion susceptibility test and cefinase test. Type of assay: cell-based, Staphylococcus aureus. The conditions noted are these: β-lactamase producing strains. How it is done:
For quality control, disk diffusion susceptibility tests, as recommended by the National Committee for Clinical Laboratory Standard, were performed on all strains using standard disk of various antibiotics. After 18 h of incubation at 37° C., the diameter of the zone of complete inhibition of bacterial growth around each disk was measured. Isolates were categorized as sensitive or resistant for a given antibiotic using the recommended interpretative guidelines of the manufacturer.

The next assay concerns S. aureus SHY97-4320. The assay is described as follows: Cell morphology by transmission electron microscopy. In kind it is cell-based, Staphylococcus aureus. On the procedure: Microorganisms were prepared for transmission electron microscopy by fixation with glutaraldehyde followed by ferritin labelling. This method allows good- preservation of capsular material. Briefly, bacterial cells grown in the presence or absence of antibiotics were fixed in cacodylate buffer (0.1 M, pH 7.0) containing 5% (v/v) glutaraldehyde, for 2 h at 20° C. Fixed microorganims were suspended in cacodylate buffer and allowed to react with the polycationic ferritin (Sigma Chemicals, St-Louis, Mo.; final concentration 1.0 mg/ml) for 30 min at 20° C. The reaction was slowed down by 10-fold dilution with buffer, and the microorganisms were centrifuged and washed three times in cacodylate buffer. Bacterial cells were then immobilized in 4% (w/v) agar, washed 5 times in cacodylate buffer and post-fixed with 2% (w/v) osmium tetroxide for 2 h. Washings were repeated as above, and the samples dehydrated in a graded series of acetone washes. Samples were then washed twice in propylene oxide and embedded in Spurr low-viscosity resin. Thin sections were post-stained with uranyl acetate and lead citrate and examined with an electron microscope (Philips 201) at an accelerating voltage of 60 kV.

Assay [2] relates to β-lactamase activity of S. aureus SHY97-4320. Put plainly: β-lactamase activity, nitrocefin assay, bovine LF/LFC. Type of assay: cell-based. The conditions noted are these: 8-μg/ml penicillin G alone. On the procedure:
The effects of sub-MICs of LF (1 mg/ml), LFC (32 and 64 μg/ml) alone or in combination with ampicillin (4μg/ml) or penicillin G (8 μg/ml) were evaluated on the β-lactamase activity of S. aureus strains SHY97-4320 and PC-1. The chromogenic cephalosporin nitrocefin (Becton Dickinson, Microbiology, Cockeysville, Md.) was used in a quantitative spectrophotometric assay. Bacterial cells were first exposed during 4 and 22-h to drugs in broth. The number of bacteria (cfu/ml) were determined and cells aliquots were centrifuged at each point in time. The pellets were suspended in 10 mM HEPES buffer (pH 7.4) to an OD415 nm of 1 for PC-1 and 2 for SHY97-4320. Nitrocefin (100 μM) was added to 100 μl of cells in a final volume of 1 ml. Hydrolysis was measured at 486 nm on spectrophotometer. β-lactamase activity was expressed as ΔO.D.486 nm/min and corrected for bacterial OD.

Assay [3] deals with S. aureus strains. Put plainly: MIC / FIC determination, summary over strains. In kind it is cell-based, Staphylococcus aureus. Particulars: with 0.5 mg/ml LF; all tested strains except ATCC 25923 and SHY97-3906 (needed 1 mg/ml LF). The source says:
Staphylococcus aureus strains ATCC 25923 and 6538 and Escherichia coli ATCC 25922 were obtained from the American Type Culture Collection. Eight bovine mastitis clinical isolates of S. aureus (SHY97-3906, -3923, -4085 -4242, -4320 and -4343, RFT-1 and RFT-5) and one isolate of E. coli SHY97-3923-2 and one isolate of Kiebsiella pneumoniae SHY99-723-1 were kindly provided by the Laboratoire Provincial de Pathologie Animale of St-Hyacinthe and of Rock-Forest (Quebec, Canada), respectively. Nine β-lactam antibiotics resistant S. aureus strains (PC-1, NCTC 9789, 2076, 22260, ST79/741, 3804, RN9, FAR8, and FAR10) were obtained from Vanderbilt University School of Medicine (Nashville, Tenn., USA). […]
The MICs were determined by both macrodilution (1 ml/tube) and microdilution (100 μl/well) in sterile 96 well microtiter plates (International Nunc, Napierville, Ill.) techniques in three separate experiments according to the National Committee for Clinical Laboratory Standards (1992 and 1999) in three separate experiments. […] Effect of LF combination with antibiotic on MICs were determined by adding 0.5 mg or 1 mg/ml of LF to each antibiotic dilution. […] Effect of LF or LFC combination with antibiotic on MIC was also determined by checkerboard method using 96 well microtiter plates. […] The fractional inhibitory concentration (FIC) was calculated as described by Eliopoulos and Moellering (1991). […]

For `CC1(C)S[C@@H]2[C@H](NC(=O)Cc3ccccc3)C(=O)N2[C@H]1C(=O)O` [penicillin G, Penicillin G], in the assay with S. aureus strains [1], the “susceptibility by standard disk diffusion and cefinase test” value is recorded as “resistance”. For the same compound, the cell morphology entry in the assay on S. aureus SHY97-4320 (penicillin G 8 μg/ml alone, 4-h) is “no visible effect”; with S. aureus SHY97-4320 (penicillin G 8 μg/ml combined with LF 1 mg/ml), “morphology changes were similar to that observed in the susceptible strain”. Besides, the β-lactamase activity entry in assay [2] is recorded as “a large increase in β-lactamase activity”. In addition, the “increase of inhibitory activity of penicillin” value with S. aureus strains [3] is reported as “two-fold”.
